Laboratory results from ChEMBL document CHEMBL1926526, “Mefloquine-oxazolidine derivatives, derived from mefloquine and arenecarbaldehydes: In vitro activity including against the multidrug-resistant tuberculosis strain T113” (Bioorg Med Chem, 2012).
≈ marks a conversion by molar mass, not a printed value. Calls of active or inactive are those of the source. The calls are words filed in the database; no cut-off is given here.

Test system: Mycobacterium tuberculosis
Experiment: Antimycobacterial activity against multiple drug-resistant Mycobacterium tuberculosis isolate T113 by alamar blue assay
Type: functional

Row | SMILES | MIC [µM] | Activity
1 | Oc1ccccc1C1O[C@@H](c2cc(C(F)(F)F)nc3c(C(F)(F)F)cccc23)[C@H]2CCCCN12 (mixture of isomers) | 25.9 | 
2 | FC(F)(F)c1cc([C@@H]2OC(c3ccccc3)N3CCCC[C@H]23)c2cccc(C(F)(F)F)c2n1 (mixture of isomers) | 26.8 | 
3 | FC(F)(F)c1cc([C@@H]2OC(c3ccc(Cl)cc3Cl)N3CCCC[C@H]23)c2cccc(C(F)(F)F)c2n1 (mixture of isomers) |  | inactive
4 | Oc1ccc(C2O[C@@H](c3cc(C(F)(F)F)nc4c(C(F)(F)F)cccc34)[C@H]3CCCCN23)cc1 (mixture of isomers) | 25.9 | 
5 | COc1ccc(C2O[C@@H](c3cc(C(F)(F)F)nc4c(C(F)(F)F)cccc34)[C@H]3CCCCN23)cc1 (mixture of isomers) | 25.2 | 
6 | FC(F)(F)c1cc([C@@H]2OC(c3ncc[nH]3)N3CCCC[C@H]23)c2cccc(C(F)(F)F)c2n1 (mixture of isomers) | 27.4 | 
7 | COc1cccc(C2O[C@@H](c3cc(C(F)(F)F)nc4c(C(F)(F)F)cccc34)[C@H]3CCCCN23)c1 (mixture of isomers) | 25.2 | 
8 | FC(F)(F)c1cc([C@@H]2OC(c3ccc(Cl)c(Cl)c3)N3CCCC[C@H]23)c2cccc(C(F)(F)F)c2n1 (mixture of isomers) |  | inactive
9 | OC(c1cc(C(F)(F)F)nc2c(C(F)(F)F)cccc12)C1CCCCN1 (centres undefined) [MEFLOQUINE] | 33 (≈ 12.5 µg/mL) | 
10 | CCOc1cccc(C2O[C@@H](c3cc(C(F)(F)F)nc4c(C(F)(F)F)cccc34)[C@H]3CCCCN23)c1 (mixture of isomers) | 24.5 | 
11 | COc1cc(C2O[C@@H](c3cc(C(F)(F)F)nc4c(C(F)(F)F)cccc34)[C@H]3CCCCN23)cc(OC)c1OC (mixture of isomers) | 22.5 | 
12 | COc1ccccc1C1O[C@@H](c2cc(C(F)(F)F)nc3c(C(F)(F)F)cccc23)[C@H]2CCCCN12 (mixture of isomers) | 12.6 | 
13 | O=[N+]([O-])c1ccc(C2O[C@@H](c3cc(C(F)(F)F)nc4c(C(F)(F)F)cccc34)[C@H]3CCCCN23)o1 (mixture of isomers) | 99.8 | 
14 | O=[N+]([O-])c1ccc(C2O[C@@H](c3cc(C(F)(F)F)nc4c(C(F)(F)F)cccc34)[C@H]3CCCCN23)s1 (mixture of isomers) | 12.1 | 
15 | Fc1ccc(C2O[C@@H](c3cc(C(F)(F)F)nc4c(C(F)(F)F)cccc34)[C@H]3CCCCN23)cc1 (mixture of isomers) | 25.8 | 
16 | CC[C@@H](CO)NCCN[C@@H](CC)CO [ETHAMBUTOL] | 61.2 (≈ 12.5 µg/mL) | 
17 | FC(F)(F)c1cc([C@@H]2OC(c3cccc(Cl)c3Cl)N3CCCC[C@H]23)c2cccc(C(F)(F)F)c2n1 (mixture of isomers) |  | inactive
18 | FC(F)(F)c1cc([C@@H]2OC(c3c(Cl)cccc3Cl)N3CCCC[C@H]23)c2cccc(C(F)(F)F)c2n1 (mixture of isomers) |  | inactive
19 | COc1cccc(C2O[C@@H](c3cc(C(F)(F)F)nc4c(C(F)(F)F)cccc34)[C@H]3CCCCN23)c1OC (mixture of isomers) | 11.9 | 
